Data on 2 compounds can be found in patent US20220204539A1, “CD73 INHIBITORS” (BioArdis LLC, priority 2019, published 2022).

The target of assay [1] is T1, Recombinant Human 5′-Nucleotidase (CD73) (Homo sapiens, UniProt P21589).
T1 construct: CHO derived CD73 (Trp27-Lys547), with a C-terminal 6-His tag; 6-His (C); purchased R&D 5795-EN; host or cells: CHO
T1 sequence (P21589 27-547): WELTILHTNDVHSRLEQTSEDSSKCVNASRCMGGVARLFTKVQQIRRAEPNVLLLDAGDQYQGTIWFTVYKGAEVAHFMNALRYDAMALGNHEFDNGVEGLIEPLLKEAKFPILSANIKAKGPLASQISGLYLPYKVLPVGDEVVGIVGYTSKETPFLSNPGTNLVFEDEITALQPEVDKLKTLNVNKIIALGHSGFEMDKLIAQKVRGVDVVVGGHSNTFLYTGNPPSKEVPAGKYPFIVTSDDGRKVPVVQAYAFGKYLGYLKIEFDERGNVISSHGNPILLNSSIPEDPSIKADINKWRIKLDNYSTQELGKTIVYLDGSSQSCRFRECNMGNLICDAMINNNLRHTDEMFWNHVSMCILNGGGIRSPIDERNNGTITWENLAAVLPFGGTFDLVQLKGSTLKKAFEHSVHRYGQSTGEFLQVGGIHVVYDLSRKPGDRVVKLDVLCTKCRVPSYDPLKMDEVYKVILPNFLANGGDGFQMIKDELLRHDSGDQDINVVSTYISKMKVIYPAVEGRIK
The assay is described as follows: CD73 Enzyme Assay. Format: biochemical. Conditions: human CD73 0.5 nM, AMP 30 μM, PiColorLock phosphate detection; read-out: Potency (IC50, CD73 enzyme assay). In short, it runs like this: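 Human CD73 (CHO-derived Trp27-Lys547, His-tagged; 0.5 nM final) was preincubated with compound for 15 min at 25° C. in Tris pH 7.5 buffer with MgCl2. It then reacted with 30 μM AMP for 20 min at 37° C., and released phosphate was read by malachite green absorbance at 635 nm. IC50 came from four-parameter fits against enzyme and no-enzyme controls.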

Assay [2] deals with T2, Cell surface CD73 of U87 MG human glioblastoma cells (Homo sapiens, UniProt P21589).
T2 construct: Cell surface CD73 catalyzes the conversion of adenosine monophosphate (AMP) to adenosine and inorganic phosphate; endogenous in cells; host or cells: U87 MG human glioblastoma cells
T2 sequence (P21589 27-549): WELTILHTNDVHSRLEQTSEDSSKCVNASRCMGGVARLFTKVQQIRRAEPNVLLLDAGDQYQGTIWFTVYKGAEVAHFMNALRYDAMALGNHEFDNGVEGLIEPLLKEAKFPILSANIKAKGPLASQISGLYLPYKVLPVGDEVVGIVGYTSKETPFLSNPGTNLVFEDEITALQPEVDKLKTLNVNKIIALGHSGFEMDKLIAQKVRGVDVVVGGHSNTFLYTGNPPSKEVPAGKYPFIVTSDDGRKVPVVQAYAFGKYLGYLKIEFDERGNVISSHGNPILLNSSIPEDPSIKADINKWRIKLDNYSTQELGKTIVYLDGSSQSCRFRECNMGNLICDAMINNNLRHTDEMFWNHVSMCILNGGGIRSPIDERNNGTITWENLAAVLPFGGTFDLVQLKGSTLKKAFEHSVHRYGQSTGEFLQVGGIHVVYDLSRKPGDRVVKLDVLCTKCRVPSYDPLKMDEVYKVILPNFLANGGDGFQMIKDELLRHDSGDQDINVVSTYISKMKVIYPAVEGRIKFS
The assay is described as follows: CD73 Cellular Assay. Conditions: 5000 cells per well, 30 μM AMP substrate, read-out: Potency (IC50, CD73 cellular assay). Type of assay: cell-based. An outline of the steps: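 U87 MG cells (5000/well) preincubated with compound 30 min at 37 °C, 5% CO2, in HEPES-buffered saline pH 7.4 with 0.5% DMSO, then 30 μM AMP (final) for 50 min. Released phosphate in supernatant read colorimetrically at 635 nm; IC50 from four-parameter logistic fit versus cells-plus-substrate and cells-only controls.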

The subject of assay [3] is CT-26 murine colon carcinoma. Nature of the assay: subcutaneous CT-26 murine colon carcinoma syngeneic model, combination therapy. Conditions: combination with anti-mPDI antibody 10 mg/kg i.p. twice weekly, 4 doses; compound 10 mg/kg iv once a day from day 6 post implant; CT-26 in BALB/c female mice. Type of assay: in vivo. As to the method:
Some compounds were evaluated preclinically for in vivo therapeutic efficacy as single agents or in combination with other agents. Compounds of the invention show potent anti-tumor effects when dosed in combination with, for example, an anti-mPDI antibody as evidenced by reducing tumor volume in a subcutaneous CT-26 murine colon carcinoma syngeneic model in BALB/c female mice. CT-26 tumor cells were implanted subcutaneously into BALB/c female mice for each experiment. Anti-mPDl antibody (10 mg/kg) was dosed i.p. starting on study day 6 post implant twice weekly for a total of 4 doses. Compound No. 65 (10 mg/kg) or vehicle was administered iv once a day starting on day 6 post implant.

Structures are written as SMILES.

For `O=P(O)(O)CP(=O)(O)OC[C@H]1O[C@@H](c2cnc3c(N4CCCC4)nc(Cl)nn23)[C@H](O)[C@@H]1O` [Compound 65, [({[(2R,3S,4R,5S)-5-[2-chloro-4-(pyrrolidin-1-yl)imidazo[2,1-f][1,2,4]triazin-7-yl]-3,4-dihydroxyoxolan-2-yl]methoxy}(hydroxy)phosphoryl)methyl]phosphonic Acid], the IC50 (in general, the concentration that gives 50% inhibition) was less than 10 nM in assay [1] and less than 1 nM in assay [2]. Moreover, the tumor volume result in assay [3] is listed as “reduction in tumor volume”.
In the case of `O=P(O)(O)CP(=O)(O)OC[C@H]1O[C@@H](c2cnc3c(N4CCC(F)(F)C4)nc(Cl)nn23)[C@@H](F)[C@@H]1O` [Compound 75, (((((2R,3R,4S,5S)-5-(2-chloro-4-(3,3-difluoropyrrolidin-1-yl)imidazo[2,1-f][1,2,4]triazin-7-yl)-4-fluoro-3-hydroxytetrahydrofuran-2-yl)methoxy)(hydroxy)phosphoryl)methyl)phosphonic Acid], the IC50 lay in the range of 10 to 99 nM in assay [1] and 1 to 9.9 nM in assay [2].
